According to PubChem BioAssay (NCI):
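Five concentrations, 48 hours, 96-well plates. TGI is the concentration that stops growth completely.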

Assays:
Test in all cases: inhibition of tumour cell growth, NCI panel, 48 h
SK-MEL-2 melanoma = tested on: SK-MEL-2 melanoma
NCI/ADR-RES ovarian = tested on: NCI/ADR-RES ovarian
CAKI-1 renal = tested on: CAKI-1 renal
EKVX NSCLC = tested on: EKVX NSCLC
NCI-H23 lung = tested on: NCI-H23 lung
HCC-2998 colon = tested on: HCC-2998 colon
A549 NSCLC = tested on: A549 NSCLC
HOP-92 NSCLC = tested on: HOP-92 NSCLC
OVCAR-4 ovarian = tested on: OVCAR-4 ovarian
HCT-116 colon = tested on: HCT-116 colon
NCI-H226 lung = tested on: NCI-H226 lung
BT-549 breast = tested on: BT-549 breast
PC-3 prostate = tested on: PC-3 prostate
SW-620 colon = tested on: SW-620 colon
MDA-MB-435 = tested on: MDA-MB-435
MOLT-4 leukemia = tested on: MOLT-4 leukemia
RPMI-8226 leukemia = tested on: RPMI-8226 leukemia
DU-145 prostate = tested on: DU-145 prostate
MALME-3M melanoma = tested on: MALME-3M melanoma
SR leukemia = tested on: SR leukemia
NCI-H522 lung = tested on: NCI-H522 lung
HL-60(TB) leukemia = tested on: HL-60(TB) leukemia
HOP-62 NSCLC = tested on: HOP-62 NSCLC
SK-MEL-5 melanoma = tested on: SK-MEL-5 melanoma
SF-268 CNS = tested on: SF-268 CNS
OVCAR-3 ovarian = tested on: OVCAR-3 ovarian
RXF 393 renal = tested on: RXF 393 renal
SK-OV-3 ovarian = tested on: SK-OV-3 ovarian
SF-539 CNS = tested on: SF-539 CNS
SNB-75 CNS = tested on: SNB-75 CNS
CCRF-CEM leukemia = tested on: CCRF-CEM leukemia
SN12C renal = tested on: SN12C renal
786-0 renal = tested on: 786-0 renal
T-47D breast = tested on: T-47D breast
HS 578T breast = tested on: HS 578T breast
ACHN renal = tested on: ACHN renal
HCT-15 colon = tested on: HCT-15 colon
COLO 205 colon = tested on: COLO 205 colon
SF-295 CNS = tested on: SF-295 CNS
U251 CNS = tested on: U251 CNS
UACC-257 melanoma = tested on: UACC-257 melanoma
A498 renal = tested on: A498 renal
UO-31 renal = tested on: UO-31 renal
M14 melanoma = tested on: M14 melanoma
HT29 colon = tested on: HT29 colon
KM12 colon = tested on: KM12 colon
OVCAR-8 ovarian = tested on: OVCAR-8 ovarian
SK-MEL-28 melanoma = tested on: SK-MEL-28 melanoma
MDA-MB-231 breast = tested on: MDA-MB-231 breast
TK-10 renal = tested on: TK-10 renal
IGROV1 ovarian = tested on: IGROV1 ovarian
UACC-62 melanoma = tested on: UACC-62 melanoma
SNB-19 CNS = tested on: SNB-19 CNS
LOX IMVI melanoma = tested on: LOX IMVI melanoma
MCF7 breast = tested on: MCF7 breast
OVCAR-5 ovarian = tested on: OVCAR-5 ovarian
K-562 leukemia = tested on: K-562 leukemia
NCI-H460 lung = tested on: NCI-H460 lung

## Cc1ccccc1N1C(N)=C(C#N)C(C#N)(C#N)C1c1ccccc1 (configuration not stated)
SK-MEL-2 melanoma
  TGI: 55.3 µM
NCI/ADR-RES ovarian
  TGI: 42.2 µM
CAKI-1 renal
  TGI: > 100 µM
EKVX NSCLC
  TGI: 42.8 µM
NCI-H23 lung
  TGI: 38.6 µM
HCC-2998 colon
  TGI: 32.4 µM
A549 NSCLC
  TGI: 62.7 µM
HOP-92 NSCLC
  TGI: 35.9 µM
OVCAR-4 ovarian
  TGI: 40.9 µM
HCT-116 colon
  TGI: 33.6 µM
NCI-H226 lung
  TGI: 38.8 µM
BT-549 breast
  TGI: 28.8 µM
PC-3 prostate
  TGI: 51 µM
SW-620 colon
  TGI: 31.7 µM
MDA-MB-435
  TGI: 35.4 µM
MOLT-4 leukemia
  TGI: 39.3 µM
RPMI-8226 leukemia
  TGI: 45.2 µM
DU-145 prostate
  TGI: 30.8 µM
MALME-3M melanoma
  TGI: 32.6 µM
SR leukemia
  TGI: 60.4 µM
NCI-H522 lung
  TGI: 32.1 µM
HL-60(TB) leukemia
  TGI: 44.2 µM
HOP-62 NSCLC
  TGI: 42.5 µM
SK-MEL-5 melanoma
  TGI: 30.1 µM
SF-268 CNS
  TGI: 45.7 µM
OVCAR-3 ovarian
  TGI: 35.6 µM
RXF 393 renal
  TGI: 33.9 µM
SK-OV-3 ovarian
  TGI: 86.6 µM
SF-539 CNS
  TGI: 37.9 µM
SNB-75 CNS
  TGI: 46 µM
CCRF-CEM leukemia
  TGI: 36.7 µM
SN12C renal
  TGI: 59 µM
786-0 renal
  TGI: 32.3 µM
T-47D breast
  TGI: 31 µM
HS 578T breast
  TGI: 58 µM
ACHN renal
  TGI: 35.1 µM
HCT-15 colon
  TGI: 35.9 µM
COLO 205 colon
  TGI: 33.4 µM
SF-295 CNS
  TGI: 68.9 µM
U251 CNS
  TGI: 31.9 µM
UACC-257 melanoma
  TGI: 32 µM
A498 renal
  TGI: 33.7 µM
UO-31 renal
  TGI: 31.2 µM
M14 melanoma
  TGI: 45 µM
HT29 colon
  TGI: 34.2 µM
KM12 colon
  TGI: 32.6 µM
OVCAR-8 ovarian
  TGI: 38.4 µM
SK-MEL-28 melanoma
  TGI: 36.5 µM
MDA-MB-231 breast
  TGI: 30.8 µM
TK-10 renal
  TGI: 28.4 µM
IGROV1 ovarian
  TGI: 33.9 µM
UACC-62 melanoma
  TGI: 37.7 µM
SNB-19 CNS
  TGI: 41.2 µM
LOX IMVI melanoma
  TGI: 32.7 µM
MCF7 breast
  TGI: 42.6 µM
OVCAR-5 ovarian
  TGI: 41.5 µM

## N#Cc1c(N)c2c(c(-c3ccccc3)c1-c1ccccc1)C(=O)N(NC(=S)Nc1ccccc1)C2=O
SK-MEL-2 melanoma
  TGI: > 100 µM
NCI/ADR-RES ovarian
  TGI: > 100 µM
CAKI-1 renal
  TGI: > 100 µM
EKVX NSCLC
  TGI: > 100 µM
HCC-2998 colon
  TGI: > 100 µM
A549 NSCLC
  TGI: > 100 µM
HOP-92 NSCLC
  TGI: > 100 µM
OVCAR-4 ovarian
  TGI: > 100 µM
HCT-116 colon
  TGI: > 100 µM
NCI-H226 lung
  TGI: > 100 µM
BT-549 breast
  TGI: > 100 µM
PC-3 prostate
  TGI: > 100 µM
SW-620 colon
  TGI: > 100 µM
MDA-MB-435
  TGI: > 100 µM
MOLT-4 leukemia
  TGI: > 100 µM
RPMI-8226 leukemia
  TGI: > 100 µM
DU-145 prostate
  TGI: > 100 µM
MALME-3M melanoma
  TGI: > 100 µM
SR leukemia
  TGI: > 100 µM
NCI-H522 lung
  TGI: > 100 µM
HL-60(TB) leukemia
  TGI: > 100 µM
SK-MEL-5 melanoma
  TGI: > 100 µM
SF-268 CNS
  TGI: > 100 µM
OVCAR-3 ovarian
  TGI: > 100 µM
RXF 393 renal
  TGI: 93.8 µM
SF-539 CNS
  TGI: > 100 µM
SNB-75 CNS
  TGI: > 100 µM
CCRF-CEM leukemia
  TGI: > 100 µM
K-562 leukemia
  TGI: > 100 µM
SN12C renal
  TGI: > 100 µM
786-0 renal
  TGI: > 100 µM
T-47D breast
  TGI: > 100 µM
HS 578T breast
  TGI: > 100 µM
ACHN renal
  TGI: > 100 µM
HCT-15 colon
  TGI: > 100 µM
COLO 205 colon
  TGI: > 100 µM
SF-295 CNS
  TGI: > 100 µM
U251 CNS
  TGI: > 100 µM
UACC-257 melanoma
  TGI: > 100 µM
A498 renal
  TGI: > 100 µM
UO-31 renal
  TGI: > 100 µM
M14 melanoma
  TGI: > 100 µM
KM12 colon
  TGI: > 100 µM
OVCAR-8 ovarian
  TGI: > 100 µM
SK-MEL-28 melanoma
  TGI: > 100 µM
NCI-H460 lung
  TGI: > 100 µM
MDA-MB-231 breast
  TGI: > 100 µM
TK-10 renal
  TGI: > 100 µM
IGROV1 ovarian
  TGI: > 100 µM
UACC-62 melanoma
  TGI: > 100 µM
SNB-19 CNS
  TGI: > 100 µM
LOX IMVI melanoma
  TGI: > 100 µM
MCF7 breast
  TGI: > 100 µM
OVCAR-5 ovarian
  TGI: > 100 µM

## COC(=O)CCC(C)[C@H]1CCC2C3C(C[C@H](OC(C)=O)[C@@]21C)[C@@]1(C)CCC2(C[C@H]1C[C@H]3OC(C)=O)OOC1(CCC(C(C)(C)C)CC1)OO2 (some centres not stated)
SK-MEL-2 melanoma
  TGI: > 100 µM
NCI/ADR-RES ovarian
  TGI: > 100 µM
CAKI-1 renal
  TGI: > 100 µM
EKVX NSCLC
  TGI: 30 µM
NCI-H23 lung
  TGI: > 100 µM
HCC-2998 colon
  TGI: > 100 µM
A549 NSCLC
  TGI: > 100 µM
HOP-92 NSCLC
  TGI: > 100 µM
OVCAR-4 ovarian
  TGI: > 100 µM
HCT-116 colon
  TGI: > 100 µM
NCI-H226 lung
  TGI: > 100 µM
BT-549 breast
  TGI: > 100 µM
PC-3 prostate
  TGI: > 100 µM
SW-620 colon
  TGI: > 100 µM
MDA-MB-435
  TGI: > 100 µM
MOLT-4 leukemia
  TGI: > 100 µM
RPMI-8226 leukemia
  TGI: 45.2 µM
DU-145 prostate
  TGI: > 100 µM
MALME-3M melanoma
  TGI: > 100 µM
SR leukemia
  TGI: > 100 µM
NCI-H522 lung
  TGI: > 100 µM
HL-60(TB) leukemia
  TGI: > 100 µM
HOP-62 NSCLC
  TGI: 29 µM
SK-MEL-5 melanoma
  TGI: > 100 µM
SF-268 CNS
  TGI: > 100 µM
OVCAR-3 ovarian
  TGI: > 100 µM
RXF 393 renal
  TGI: > 100 µM
SK-OV-3 ovarian
  TGI: > 100 µM
SF-539 CNS
  TGI: > 100 µM
SNB-75 CNS
  TGI: > 100 µM
CCRF-CEM leukemia
  TGI: > 100 µM
K-562 leukemia
  TGI: > 100 µM
SN12C renal
  TGI: > 100 µM
786-0 renal
  TGI: > 100 µM
T-47D breast
  TGI: > 100 µM
HS 578T breast
  TGI: > 100 µM
ACHN renal
  TGI: > 100 µM
HCT-15 colon
  TGI: > 100 µM
COLO 205 colon
  TGI: > 100 µM
SF-295 CNS
  TGI: > 100 µM
U251 CNS
  TGI: > 100 µM
UACC-257 melanoma
  TGI: > 100 µM
A498 renal
  TGI: > 100 µM
UO-31 renal
  TGI: 29 µM
M14 melanoma
  TGI: > 100 µM
HT29 colon
  TGI: > 100 µM
KM12 colon
  TGI: > 100 µM
OVCAR-8 ovarian
  TGI: > 100 µM
SK-MEL-28 melanoma
  TGI: > 100 µM
NCI-H460 lung
  TGI: > 100 µM
MDA-MB-231 breast
  TGI: > 100 µM
TK-10 renal
  TGI: > 100 µM
IGROV1 ovarian
  TGI: 48.8 µM
SNB-19 CNS
  TGI: > 100 µM
LOX IMVI melanoma
  TGI: > 100 µM
MCF7 breast
  TGI: > 100 µM
OVCAR-5 ovarian
  TGI: > 100 µM
